Test results as given in ChEMBL document CHEMBL5465560, “Selectivity Literature for EUbOPEN Chemogenomic Library” (2024).

Legend:
[1] = target: Serine/threonine-protein kinase PAK 4 (Homo sapiens, UniProt O96013); test: Selectivity interaction (Kinase panel (literature)) EUB0001199aCl PAK4; settings: at 1 µM
[2] = target: Tyrosine-protein kinase ABL2 (Homo sapiens, UniProt P42684); test: Selectivity interaction (KinomeScan (DiscoverX)) EUB0000618a ABL2; settings: at 10 µM
[3] = target: T1, Inhibitor of nuclear factor kappa-B kinase subunit beta (Homo sapiens) (UniProt O14920); test: Selectivity interaction (SelectScreen profiling (Invitrogen)) EUB0000607a IKBKB; settings: at 2 µM
T1 sequence (whole entry): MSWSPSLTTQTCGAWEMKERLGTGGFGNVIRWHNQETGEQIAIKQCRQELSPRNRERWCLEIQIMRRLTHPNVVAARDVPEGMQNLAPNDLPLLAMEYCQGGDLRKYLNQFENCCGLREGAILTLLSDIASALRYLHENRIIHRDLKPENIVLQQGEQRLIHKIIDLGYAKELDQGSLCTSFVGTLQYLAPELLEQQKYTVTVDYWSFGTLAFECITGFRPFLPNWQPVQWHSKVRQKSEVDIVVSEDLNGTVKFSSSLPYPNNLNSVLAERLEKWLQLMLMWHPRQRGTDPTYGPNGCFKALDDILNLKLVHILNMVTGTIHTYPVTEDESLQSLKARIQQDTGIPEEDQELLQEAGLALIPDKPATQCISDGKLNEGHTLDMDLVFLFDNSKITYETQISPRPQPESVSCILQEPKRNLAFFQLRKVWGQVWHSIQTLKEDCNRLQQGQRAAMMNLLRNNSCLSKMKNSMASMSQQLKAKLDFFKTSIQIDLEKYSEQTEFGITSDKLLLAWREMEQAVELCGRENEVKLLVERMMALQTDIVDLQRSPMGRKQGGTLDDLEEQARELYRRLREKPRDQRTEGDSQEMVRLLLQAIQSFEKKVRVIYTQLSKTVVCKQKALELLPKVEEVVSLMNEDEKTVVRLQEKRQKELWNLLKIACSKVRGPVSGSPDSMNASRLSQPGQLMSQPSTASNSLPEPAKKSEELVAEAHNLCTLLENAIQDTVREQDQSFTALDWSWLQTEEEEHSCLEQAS

[4] = target: Serine/threonine-protein kinase Nek4 (Homo sapiens) (UniProt P51957); test: Selectivity interaction (Kinase panel (KiNativ target engagement assay in Jurkat cells)) EUB0001635a NEK4; type: cell-based; settings: at 1 µM
[5] = target: BDNF/NT-3 growth factors receptor (Homo sapiens) (UniProt Q16620); test: Selectivity interaction (KinomeScan (DiscoverX)) EUB0000229b NTRK2; settings: at 10 µM
[6] = target: Serine/threonine-protein kinase PAK 6 (Homo sapiens) (UniProt Q9NQU5); test: Selectivity interaction (ProQinase) EUB0000171b PAK6; settings: at 1 µM
[7] = target: Insulin-like growth factor 1 receptor (Homo sapiens, UniProt P08069); test: Selectivity interaction (KinomeScan (DiscoverX)) EUB0001049a IGF1R; settings: at 1 µM
[8] = target: T2, Serine/threonine-protein kinase TNNI3K (Homo sapiens) (UniProt Q59H18); test: Selectivity interaction (KinomeScan (DiscoverX)) EUB0000092b TNNI3K; settings: at 10 µM
T2 sequence (whole entry): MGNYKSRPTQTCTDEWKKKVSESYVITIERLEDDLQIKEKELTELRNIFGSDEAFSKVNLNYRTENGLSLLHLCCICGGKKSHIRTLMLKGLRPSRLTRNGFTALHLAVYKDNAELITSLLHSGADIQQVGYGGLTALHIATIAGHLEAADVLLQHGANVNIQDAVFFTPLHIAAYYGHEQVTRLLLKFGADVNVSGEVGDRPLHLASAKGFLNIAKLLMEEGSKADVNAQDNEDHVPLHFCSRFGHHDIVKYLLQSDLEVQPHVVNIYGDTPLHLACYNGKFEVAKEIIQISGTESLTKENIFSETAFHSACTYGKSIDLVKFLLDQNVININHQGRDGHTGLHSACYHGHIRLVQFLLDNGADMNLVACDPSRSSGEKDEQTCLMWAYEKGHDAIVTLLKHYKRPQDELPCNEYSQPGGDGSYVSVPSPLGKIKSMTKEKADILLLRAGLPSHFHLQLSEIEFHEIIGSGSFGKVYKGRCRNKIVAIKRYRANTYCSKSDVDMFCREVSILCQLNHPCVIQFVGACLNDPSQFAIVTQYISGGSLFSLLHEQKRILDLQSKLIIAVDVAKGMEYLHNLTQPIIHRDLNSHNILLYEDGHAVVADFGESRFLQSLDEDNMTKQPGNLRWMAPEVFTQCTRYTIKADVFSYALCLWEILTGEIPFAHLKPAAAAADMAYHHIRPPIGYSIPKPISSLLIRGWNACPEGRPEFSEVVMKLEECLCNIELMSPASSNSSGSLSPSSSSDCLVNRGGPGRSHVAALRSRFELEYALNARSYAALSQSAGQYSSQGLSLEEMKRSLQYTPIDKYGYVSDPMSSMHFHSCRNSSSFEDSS

[9] = target: T3, Tyrosine-protein kinase ZAP-70 (Homo sapiens) (UniProt P43403); test: Selectivity interaction (KinomeScan (DiscoverX)) EUB0000092b ZAP70; settings: at 10 µM
T3 sequence (whole entry): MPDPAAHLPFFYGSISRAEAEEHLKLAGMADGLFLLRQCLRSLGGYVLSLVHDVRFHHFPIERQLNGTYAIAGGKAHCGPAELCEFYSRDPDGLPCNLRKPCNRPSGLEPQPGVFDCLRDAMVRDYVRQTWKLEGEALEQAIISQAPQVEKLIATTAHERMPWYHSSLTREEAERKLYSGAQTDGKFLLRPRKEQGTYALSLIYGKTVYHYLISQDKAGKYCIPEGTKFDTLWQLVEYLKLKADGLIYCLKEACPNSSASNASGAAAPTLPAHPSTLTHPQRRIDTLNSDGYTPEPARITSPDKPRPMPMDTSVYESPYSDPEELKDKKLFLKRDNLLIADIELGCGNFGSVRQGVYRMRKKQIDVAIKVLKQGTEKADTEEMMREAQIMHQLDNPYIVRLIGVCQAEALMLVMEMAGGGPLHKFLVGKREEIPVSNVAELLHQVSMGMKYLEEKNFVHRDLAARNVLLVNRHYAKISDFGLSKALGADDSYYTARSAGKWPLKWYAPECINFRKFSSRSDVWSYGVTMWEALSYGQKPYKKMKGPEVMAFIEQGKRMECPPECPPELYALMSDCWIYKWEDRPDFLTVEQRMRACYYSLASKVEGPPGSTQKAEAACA

[10] = target: Transcription initiation factor TFIID subunit 1-like (Homo sapiens) (UniProt Q8IZX4); test: Selectivity interaction (Human bromodomain panel (DSF assay)) EUB0000233b TAF1L
[11] = target: Casein kinase II subunit alpha' (Homo sapiens) (UniProt P19784); test: Selectivity interaction (Kinase panel (Z-LYTE Assay)) EUB0001632a CSNK2A2; settings: at 10 µM
Sequence of Casein kinase II subunit alpha' (Homo sapiens) (P19784 whole entry, looked up): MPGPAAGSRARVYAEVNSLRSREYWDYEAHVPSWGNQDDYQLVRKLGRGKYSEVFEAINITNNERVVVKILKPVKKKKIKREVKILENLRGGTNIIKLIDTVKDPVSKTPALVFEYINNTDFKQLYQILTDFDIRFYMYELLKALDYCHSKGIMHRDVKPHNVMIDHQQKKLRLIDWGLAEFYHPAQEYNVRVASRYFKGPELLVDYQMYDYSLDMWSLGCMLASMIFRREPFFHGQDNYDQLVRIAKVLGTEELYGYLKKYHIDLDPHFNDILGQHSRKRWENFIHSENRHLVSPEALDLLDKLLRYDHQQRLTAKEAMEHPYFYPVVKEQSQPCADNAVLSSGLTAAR

Sequence of Transcription initiation factor TFIID subunit 1-like (Homo sapiens) (Q8IZX4 whole entry): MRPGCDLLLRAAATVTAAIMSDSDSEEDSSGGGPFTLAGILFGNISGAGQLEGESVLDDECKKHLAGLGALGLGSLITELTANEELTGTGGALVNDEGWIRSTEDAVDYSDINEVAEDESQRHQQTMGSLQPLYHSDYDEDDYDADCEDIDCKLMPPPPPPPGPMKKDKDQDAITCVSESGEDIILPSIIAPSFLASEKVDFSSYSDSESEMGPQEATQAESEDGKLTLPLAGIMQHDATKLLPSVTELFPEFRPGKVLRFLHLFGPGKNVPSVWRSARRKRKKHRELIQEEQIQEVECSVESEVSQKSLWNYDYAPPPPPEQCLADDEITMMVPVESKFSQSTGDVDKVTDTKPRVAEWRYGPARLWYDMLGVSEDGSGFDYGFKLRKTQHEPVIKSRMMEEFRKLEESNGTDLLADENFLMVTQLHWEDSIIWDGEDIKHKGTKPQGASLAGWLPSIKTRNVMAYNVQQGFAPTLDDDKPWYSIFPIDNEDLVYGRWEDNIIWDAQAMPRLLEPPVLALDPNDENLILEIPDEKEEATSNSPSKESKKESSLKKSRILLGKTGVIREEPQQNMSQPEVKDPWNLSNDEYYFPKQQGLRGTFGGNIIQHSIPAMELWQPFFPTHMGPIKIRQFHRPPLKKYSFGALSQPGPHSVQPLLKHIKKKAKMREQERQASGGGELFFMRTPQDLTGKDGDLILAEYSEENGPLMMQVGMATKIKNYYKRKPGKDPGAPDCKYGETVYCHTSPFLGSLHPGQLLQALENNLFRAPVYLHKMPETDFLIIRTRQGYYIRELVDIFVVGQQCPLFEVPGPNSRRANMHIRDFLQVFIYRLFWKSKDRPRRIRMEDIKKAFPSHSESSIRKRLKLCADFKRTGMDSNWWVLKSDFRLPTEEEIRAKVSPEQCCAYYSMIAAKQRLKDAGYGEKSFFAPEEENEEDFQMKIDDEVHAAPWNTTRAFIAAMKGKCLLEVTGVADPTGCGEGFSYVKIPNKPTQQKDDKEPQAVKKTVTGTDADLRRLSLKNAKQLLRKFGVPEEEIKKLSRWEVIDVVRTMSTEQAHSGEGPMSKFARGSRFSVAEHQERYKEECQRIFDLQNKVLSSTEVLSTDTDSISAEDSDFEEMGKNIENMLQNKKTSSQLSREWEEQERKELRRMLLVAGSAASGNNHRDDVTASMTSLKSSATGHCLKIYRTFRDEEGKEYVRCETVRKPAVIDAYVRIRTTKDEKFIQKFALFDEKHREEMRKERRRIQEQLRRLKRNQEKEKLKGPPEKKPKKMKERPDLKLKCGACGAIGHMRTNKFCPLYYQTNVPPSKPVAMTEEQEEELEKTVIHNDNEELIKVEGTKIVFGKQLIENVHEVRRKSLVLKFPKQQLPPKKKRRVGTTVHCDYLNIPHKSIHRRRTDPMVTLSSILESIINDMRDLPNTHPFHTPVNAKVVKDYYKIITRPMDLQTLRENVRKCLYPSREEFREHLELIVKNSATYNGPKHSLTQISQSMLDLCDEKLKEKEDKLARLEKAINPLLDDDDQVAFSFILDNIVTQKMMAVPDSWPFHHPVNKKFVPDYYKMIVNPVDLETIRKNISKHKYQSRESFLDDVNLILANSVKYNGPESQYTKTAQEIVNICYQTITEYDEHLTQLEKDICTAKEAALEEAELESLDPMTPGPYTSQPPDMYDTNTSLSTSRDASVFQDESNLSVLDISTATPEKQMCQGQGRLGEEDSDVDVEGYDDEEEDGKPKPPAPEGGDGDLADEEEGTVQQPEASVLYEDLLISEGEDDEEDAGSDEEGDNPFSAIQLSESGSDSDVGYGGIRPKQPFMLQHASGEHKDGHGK
Sequence of Serine/threonine-protein kinase PAK 4 (O96013 whole entry, looked up): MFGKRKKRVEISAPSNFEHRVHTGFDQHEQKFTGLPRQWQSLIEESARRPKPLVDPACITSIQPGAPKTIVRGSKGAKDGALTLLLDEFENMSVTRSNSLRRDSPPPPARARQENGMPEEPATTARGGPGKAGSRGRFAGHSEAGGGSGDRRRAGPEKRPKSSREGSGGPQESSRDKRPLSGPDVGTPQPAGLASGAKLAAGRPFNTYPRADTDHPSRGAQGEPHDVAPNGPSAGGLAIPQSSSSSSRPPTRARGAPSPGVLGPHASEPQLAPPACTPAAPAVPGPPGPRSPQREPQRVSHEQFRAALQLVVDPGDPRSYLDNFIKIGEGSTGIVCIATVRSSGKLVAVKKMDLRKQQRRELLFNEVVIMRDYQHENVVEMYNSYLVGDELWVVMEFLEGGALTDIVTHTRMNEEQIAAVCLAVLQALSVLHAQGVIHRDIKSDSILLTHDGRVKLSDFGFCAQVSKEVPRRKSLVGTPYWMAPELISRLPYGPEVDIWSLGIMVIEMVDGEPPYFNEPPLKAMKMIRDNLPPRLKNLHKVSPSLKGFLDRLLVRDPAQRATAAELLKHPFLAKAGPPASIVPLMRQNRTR
Sequence of Tyrosine-protein kinase ABL2 (P42684 whole entry): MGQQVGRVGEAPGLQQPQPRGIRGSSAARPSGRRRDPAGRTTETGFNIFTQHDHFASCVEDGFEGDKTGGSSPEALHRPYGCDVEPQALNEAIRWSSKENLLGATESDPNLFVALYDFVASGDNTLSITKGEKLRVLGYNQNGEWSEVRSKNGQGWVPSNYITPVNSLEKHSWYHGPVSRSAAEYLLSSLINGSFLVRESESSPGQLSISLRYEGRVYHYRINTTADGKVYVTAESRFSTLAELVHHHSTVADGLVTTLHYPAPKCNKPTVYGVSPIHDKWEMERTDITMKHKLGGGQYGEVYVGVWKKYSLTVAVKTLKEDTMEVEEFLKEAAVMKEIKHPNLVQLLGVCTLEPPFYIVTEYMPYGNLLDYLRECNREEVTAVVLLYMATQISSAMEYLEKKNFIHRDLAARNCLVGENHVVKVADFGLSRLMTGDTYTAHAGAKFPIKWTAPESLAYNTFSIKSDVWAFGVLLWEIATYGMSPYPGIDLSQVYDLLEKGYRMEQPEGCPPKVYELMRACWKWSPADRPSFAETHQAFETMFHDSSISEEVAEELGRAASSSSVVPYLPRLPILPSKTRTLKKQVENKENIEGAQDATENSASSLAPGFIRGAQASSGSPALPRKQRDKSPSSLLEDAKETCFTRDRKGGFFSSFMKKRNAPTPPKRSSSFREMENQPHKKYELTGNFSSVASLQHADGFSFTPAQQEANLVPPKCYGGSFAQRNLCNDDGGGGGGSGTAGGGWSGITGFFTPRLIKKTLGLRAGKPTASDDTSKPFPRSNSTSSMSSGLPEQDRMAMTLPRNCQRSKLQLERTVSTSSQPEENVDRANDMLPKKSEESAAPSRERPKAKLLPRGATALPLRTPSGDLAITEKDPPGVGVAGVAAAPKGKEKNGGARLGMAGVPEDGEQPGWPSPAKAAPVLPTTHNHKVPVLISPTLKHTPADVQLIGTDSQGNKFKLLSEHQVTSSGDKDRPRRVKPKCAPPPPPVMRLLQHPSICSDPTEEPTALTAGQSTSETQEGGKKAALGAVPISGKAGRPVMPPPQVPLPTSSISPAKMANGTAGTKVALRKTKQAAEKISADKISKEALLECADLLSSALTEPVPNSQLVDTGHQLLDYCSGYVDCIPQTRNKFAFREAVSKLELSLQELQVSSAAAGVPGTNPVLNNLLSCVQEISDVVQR
Sequence of BDNF/NT-3 growth factors receptor (Homo sapiens) (Q16620 32-822 limits assumed): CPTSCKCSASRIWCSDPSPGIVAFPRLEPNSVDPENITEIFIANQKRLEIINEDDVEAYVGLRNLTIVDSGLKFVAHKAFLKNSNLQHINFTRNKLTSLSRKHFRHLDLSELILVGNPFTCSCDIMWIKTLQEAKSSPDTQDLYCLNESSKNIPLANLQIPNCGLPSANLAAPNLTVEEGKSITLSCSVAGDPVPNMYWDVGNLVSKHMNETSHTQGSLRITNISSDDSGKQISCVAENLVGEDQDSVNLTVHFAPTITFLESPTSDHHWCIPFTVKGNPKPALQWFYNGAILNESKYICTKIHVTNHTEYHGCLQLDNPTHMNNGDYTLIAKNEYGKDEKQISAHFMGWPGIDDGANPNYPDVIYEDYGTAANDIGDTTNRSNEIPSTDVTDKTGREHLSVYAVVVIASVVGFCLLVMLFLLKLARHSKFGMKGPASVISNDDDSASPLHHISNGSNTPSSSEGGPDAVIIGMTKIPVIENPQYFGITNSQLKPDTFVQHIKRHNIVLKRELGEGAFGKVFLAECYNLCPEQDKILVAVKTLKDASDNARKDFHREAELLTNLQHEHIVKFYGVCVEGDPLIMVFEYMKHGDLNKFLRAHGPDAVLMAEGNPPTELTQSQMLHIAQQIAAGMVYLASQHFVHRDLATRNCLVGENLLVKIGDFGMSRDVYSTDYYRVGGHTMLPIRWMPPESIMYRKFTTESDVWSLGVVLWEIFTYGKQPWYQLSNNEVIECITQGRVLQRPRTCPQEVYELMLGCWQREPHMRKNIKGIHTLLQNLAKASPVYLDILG

CN1Cc2nccc(-c3cn(C)nc3-c3ccc(F)cc3)c2C1=O
% of inhibition [1]: 7%

O[C@H]1CC[C@H](Nc2ncc3nc(Nc4c(F)cc(F)cc4F)n([C@H]4CCOC4)c3n2)CC1
% of control [2]: 100%

CNC(=O)Nc1ccc(-c2nc(N3CC4CCC(C3)O4)c3cnn(C4CCC5(CC4)OCCO5)c3n2)cc1
% of inhibition [3]: -5%

C=CC(=O)Nc1ccc(C(=O)Nc2[nH]nc3c2CN(C(=O)N[C@H](CN(C)C)c2ccccc2)C3(C)C)cc1
% of engagement [4]: 0.8%

COc1cc(N(C)c2ccnc3ccc(C(F)(F)F)cc23)cc(OC)c1OC
% binding [5]: 100%

C=CC(=O)Nc1cccc(C(=O)Nc2ccc(Nc3cc(-c4[nH]c(SC)nc4C)ccn3)cc2)c1
% of control [6]: 90%

COc1cc(Nc2nc(C)cc(-c3cnn4nc(OC)ccc34)n2)cc(C(F)(F)F)c1
% of control [7]: 91%

CCC(=O)N1CCN(c2ccc(-n3c(=O)ccc4cnc5ccc(-c6cnc7ccccc7c6)cc5c43)cc2C(F)(F)F)CC1
% of control [8]: 66% | % of control [9]: 100%

CN(C)CCCOc1ccc(-c2cc(NCCCn3cccn3)nc(S(C)(=O)=O)n2)cc1
dTM [10]: < 2 K

Cn1cc(-n2cnc3c(NCc4nc5cc(Cl)c(Cl)cc5[nH]4)nc(N4CCOCC4)nc32)cn1
% of control [11]: 1.8%
